Measurements reported in article PMC9816194, “Use of the head-twitch response to investigate the structure–activity relationships of 4-thio-substituted 2,5-dimethoxyphenylalkylamines” (Psychopharmacology, 2022).
Where two headings read alike, the source gives them in different places.

Columns and labels:
human 5-HT2A receptor [1] = target: T1, human 5-HT2A receptor (Homo sapiens, UniProt P28223); assay: 5-HT2A receptor binding, [3H]ketanserin displacement; design: expressed in transfected cells; host or cells: HEK 293 (transient), membrane preparations
Description: (§1) 5-HT receptor binding affinities were assessed as previously described in detail (Luethi et al. [2018]). In brief, membrane preparations of transiently transfected HEK 293 cells were incubated with selective radioligands at concentrations equal to the corresponding Kd and then ligand displacement by the test drugs was measured. The difference between the total binding and the nonspecific binding determined in the presence of selective competitors was defined as specific binding. The following radioligands and competitors, respectively, were used: 0.40 nM [^3H]ketanserin and 10 μM spiperone (serotonin 5-HT2A receptor), 1.4 nM [^3H]mesulergine and 10 μM mianserin (serotonin 5-HT2C receptor). The IC50 values of the radioligand binding assays were determined using nonlinear regression curves for every drug in a one-site model. Ki values corresponding to the dissociation constants were calculated with the Cheng-Prusoff equation.

human 5-HT2B receptor = target: T2, human 5-HT2B receptor (Homo sapiens, UniProt P41595); assay: Agonist activity at the 5-HT2B receptor, FLIPR calcium flux in HEK 293 cells; type: cell-based; conditions: for Emax: HEK293, calcium flux, read-out: h5-HT2B Emax
T2 construct: expressed in transfected cells
Description: HEK 293 cells stably expressing the human 5-HT2B receptor were incubated overnight in poly-D-lysine-coated 96-well plates at a density of 50,000 cells per well and 37 °C. Thereafter, the growth medium was removed by snap inversion and 200 μL of no wash dye (FLIPR calcium 6 assay kit; Molecular Devices, Sunnyvale, CA, USA) was added to each well. The plates were incubated for 2 h at 37 °C and then placed into a FLIPR. Fifty microliters of the test drugs diluted in assay buffer was added to each well online and the increase in fluorescence was measured for 51 s. EC50 values were derived from the concentration–response curves using nonlinear regression.

h5-HT2C receptors = target: T3, h5-HT2C receptors (Homo sapiens, UniProt P28335); assay: 5-HT2C receptor binding, [3H]mesulergine displacement
T3 construct: expressed in transfected cells; host or cells: HEK 293 (transient), membrane preparations
T3 sequence (P28335 33-458): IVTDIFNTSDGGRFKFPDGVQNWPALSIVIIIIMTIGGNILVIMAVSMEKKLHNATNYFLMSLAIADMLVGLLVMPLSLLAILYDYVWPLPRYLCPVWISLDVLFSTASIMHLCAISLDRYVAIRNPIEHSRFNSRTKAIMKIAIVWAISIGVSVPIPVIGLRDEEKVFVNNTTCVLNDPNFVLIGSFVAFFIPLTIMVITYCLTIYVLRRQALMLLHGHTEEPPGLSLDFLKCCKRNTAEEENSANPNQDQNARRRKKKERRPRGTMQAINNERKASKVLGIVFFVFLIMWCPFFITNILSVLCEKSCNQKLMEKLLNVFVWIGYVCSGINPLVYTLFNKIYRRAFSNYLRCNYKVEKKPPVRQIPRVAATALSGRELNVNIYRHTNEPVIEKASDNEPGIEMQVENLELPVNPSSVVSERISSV
Description: as §1

humans = conditions: cited from earlier work
human 5-HT2A receptor [2] = target: T1, human 5-HT2A receptor; assay: Agonist activity at the 5-HT2A receptor, FLIPR calcium flux in NIH-3T3 cells; type: cell-based; design: expressed in transfected cells; conditions: for Emax: NIH3T3, calcium flux, relative to 5-HT, read-out: h5-HT2A Emax
Description: NIH-3T3 cells stably expressing the human 5-HT2A receptor were incubated in HEPES-Hank’s Balanced Salt Solution (HBSS) buffer (Gibco, Zug, Switzerland; 70,000 cells/100 μL) for 1 h at 37 °C in poly-D-lysine-coated 96-well plates. Thereafter, 100 μL of dye solution (fluorescence imaging plate reader [FLIPR] calcium 5 assay kit dye solution; Molecular Devices, Sunnyvale, CA, USA) was added to each well and the plates were incubated for 1 h at 37 °C. The plates were then placed into a FLIPR and 25 μL of the test drugs diluted in HEPES-HBSS containing 250 mM probenicid was added to each well online. The increase in fluorescence was measured for 51 s, and EC50 values were derived from the concentration–response curves using nonlinear regression.

male C57BL/6 J mice [3] = assay: Head-twitch response (HTR), magnetometer coil recording; type: in vivo; conditions: for HTR Counts (Mean ± SEM): 30 min; for ED50: Mus musculus, 0.5 h, HTR, 30 min recording, male C57BL/6 J mice; for ED50 / effect on HTR counts (in words): IP; for maximum number of head twitches (mean ± SEM): during the 30-min assessment period; for effect on HTR counts (in words): versus vehicle/baseline
Description: Male C57BL/6 J mice (Jackson Laboratory, Bar Harbor, ME) were housed in a vivarium at the University of California San Diego (UCSD), which is an AAALAC-approved animal facility that complies with Federal and State requirements for care and treatment of laboratory animals. The mice (6–8 weeks old) were housed in a climate-controlled room with a reversed light-cycle (lights on at 19:00 h, off at 07:00 h) up to 4 animals per cage. Food and water were provided ad libitum, except during behavioral testing which occurred between 10:00 and 18:00 h. All experiments were conducted according to NIH guidelines and were approved by the UCSD animal care committee.
Head movement was recorded using a head-mounted magnet and a magnetometer coil (Halberstadt and Geyer [2013]). Briefly, mice were anesthetized, a small incision was made in the scalp, and a neodymium magnet was attached to the dorsal surface of the cranium using dental cement. Following a 1–2-week recovery period, behavioral experiments were conducted in a well-lit room with at least 7 days between sessions to avoid any carryover effects. Mice were treated with vehicle or test compound and then placed in a glass cylinder surrounded by a magnetometer coil and activity was recorded for 30 min. All test substances were administered IP dissolved in saline using an injection volume of 5 mL/kg. Coil voltage was filtered (5–10 kHz lowpass), digitized (20 kHz sampling rate), and saved to disk using a Powerlab/8SP with LabChart v 7.3.2 (ADInstruments, Colorado Springs, CO). To detect head twitches, events in the recordings were converted into scalograms using a wavelet transform and then the images were classified using a multistage approach combining the deep convolutional neural network (CNN) ResNet-50 with a support vector machine (SVM) algorithm (Halberstadt [2020]). HTR counts were analyzed using a one-way Welch analysis of variance (ANOVA). Post hoc pairwise comparisons were performed using Dunnett’s test. […] Median effective doses (ED50 values) and 95% confidence intervals were calculated using nonlinear regression (Prism ver. 9.0.2, GraphPad Software Inc, San Diego, CA, USA).

human 5-HT2A receptor [4] = target: T1, human 5-HT2A receptor; design: expressed in transfected cells; host or cells: HEK 293 (transient), membrane preparations; conditions: read-out: 5-HT2A Ki, [3H]ketanserin, cited from earlier work
rats [5] = system: rats; design: method as in Eshleman et al. 2014; Fantegrossi et al. 2005; conditions: rats trained to discriminate LSD or DMT; ref Eshleman et al. 2014; Fantegrossi et al. 2005; cited from earlier work
mice = conditions: ref Fantegrossi et al. 2005, cited from earlier work
rats [6] = system: rats; design: method as in Khorana et al. 2004; Li et al. 2010, 2008; conditions: ref Khorana et al. 2004, Li et al. 2010, 2008; cited from earlier work
monkeys = system: monkeys; design: method as in Khorana et al. 2004; Li et al. 2010, 2008; conditions: ref Khorana et al. 2004, Li et al. 2010, 2008; cited from earlier work
human 5-HT2A receptor [7] = target: T1, human 5-HT2A receptor; design: expressed in transfected cells; host or cells: HEK 293 (transient); method as in Luethi et al. 2018; conditions: 5-HT2A calcium flux assays; ref Luethi et al. 2018; cited from earlier work
male C57BL/6 J mice [8] = system: male C57BL/6 J mice; design: method as in Halberstadt et al. (2019a); conditions: HTR, previous experiment using similar methods; ref Halberstadt et al. (2019a); cited from earlier work
[9] = read-out: ED50 µmol/kg (95% CI)
[10] = p.o., ref Shulgin and Shulgin 1991, Trachsel et al. 2013

T1 sequence (P28223 whole entry): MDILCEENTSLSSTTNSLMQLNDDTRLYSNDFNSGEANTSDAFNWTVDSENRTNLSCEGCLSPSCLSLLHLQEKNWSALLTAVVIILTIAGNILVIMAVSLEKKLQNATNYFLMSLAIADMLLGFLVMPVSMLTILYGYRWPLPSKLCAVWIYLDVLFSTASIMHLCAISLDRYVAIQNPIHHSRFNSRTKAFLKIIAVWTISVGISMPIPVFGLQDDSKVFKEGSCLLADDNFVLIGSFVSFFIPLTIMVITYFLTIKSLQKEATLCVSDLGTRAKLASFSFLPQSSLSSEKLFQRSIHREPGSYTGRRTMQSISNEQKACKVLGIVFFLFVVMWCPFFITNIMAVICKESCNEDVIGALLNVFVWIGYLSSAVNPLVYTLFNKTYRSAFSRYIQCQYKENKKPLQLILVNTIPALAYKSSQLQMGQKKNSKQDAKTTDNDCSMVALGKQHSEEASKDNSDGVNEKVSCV
T2 sequence (P41595 whole entry): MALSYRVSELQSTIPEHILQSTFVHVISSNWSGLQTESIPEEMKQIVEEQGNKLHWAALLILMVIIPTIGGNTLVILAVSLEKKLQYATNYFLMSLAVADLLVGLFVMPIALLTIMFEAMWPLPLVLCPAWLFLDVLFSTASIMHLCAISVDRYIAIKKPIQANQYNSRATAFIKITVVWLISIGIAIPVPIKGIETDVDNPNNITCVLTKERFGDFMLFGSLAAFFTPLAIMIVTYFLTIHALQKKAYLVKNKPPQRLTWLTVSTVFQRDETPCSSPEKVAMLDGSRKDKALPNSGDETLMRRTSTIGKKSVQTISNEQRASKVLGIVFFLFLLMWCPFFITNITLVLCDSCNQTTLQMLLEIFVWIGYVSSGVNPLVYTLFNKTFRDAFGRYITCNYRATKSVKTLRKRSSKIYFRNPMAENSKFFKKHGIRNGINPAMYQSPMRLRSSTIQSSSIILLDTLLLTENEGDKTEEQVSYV

Structure (SMILES)	HTR Counts (Mean ± SEM) (male C57BL/6 J mice [3]; 0.1 mg/kg IP)	HTR Counts (Mean ± SEM) (male C57BL/6 J mice [3]; 0.3 mg/kg IP)	HTR Counts (Mean ± SEM) (male C57BL/6 J mice [3]; 1 mg/kg IP)	HTR Counts (Mean ± SEM) (male C57BL/6 J mice [3]; 3 mg/kg IP)	HTR Counts (Mean ± SEM) (male C57BL/6 J mice [3]; 10 mg/kg IP)	ED50 (male C57BL/6 J mice [3]; [9])	ED50 (male C57BL/6 J mice [3]; read-out: ED50 mg/kg (95% CI))	Ki (human 5-HT2A receptor [4]; ref Luethi et al. (2018))	also measured
COc1cc(SC)c(OC)cc1CC(C)N.Cl (stereo not shown) [ALEPH, 2,5-Dimethoxy-4-methylthioamphetamine hydrochloride]	7.8 ± 1.2	19.4 ± 1.2	72.0 ± 12.1	115.0 ± 20.9	74.0 ± 13.5	2.88 µmol/kg	0.8 mg/kg		Ki (human 5-HT2A receptor [1]): 77.8 nM; EC50 (human 5-HT2B receptor): 19.2 ± 1.7 nM; Emax (human 5-HT2B receptor): 51 ± 2.6%; Ki (h5-HT2C receptors): 355 ± 76 nM; Human active dose range (humans; ref Shulgin and Nichols 1978, Shulgin and Shulgin 1991): 5 to 15 mg; EC50 (human 5-HT2A receptor [2]): 10.3 ± 0.6 nM; Emax (human 5-HT2A receptor [2]): 80 ± 2.3%
CCSc1cc(OC)c(CCN)cc1OC.Cl [Compound 2C-T-2, 2,5-dimethoxy-4-ethylthiophenethylamine hydrochloride]	12.2 ± 1.9	28.4 ± 4.7	65.2 ± 5.9	36.8 ± 11.5		1.44 µmol/kg	0.4 mg/kg		Ki (human 5-HT2A receptor [4]; ref Rickli et al. (2015)): 9 nM; substitution for training drug (in words) (rats [5]): partial generalization; maximum number of head twitches (mean ± SEM) (male C57BL/6 J mice [3]): 65.2 ± 5.9
CCCSc1cc(OC)c(CCN)cc1OC.Cl [Compound 2C-T-7, 2,5-dimethoxy-4-n-propylthiophenethylamine hydrochloride]	11.8 ± 1.3	18.4 ± 3.5	70.2 ± 10.6	58.6 ± 9.7		2.12 µmol/kg	0.62 mg/kg	5.3 nM	Human active dose range (humans; [10]): 10 to 30 mg; substitution for training drug (in words) (rats [5]): partial generalization; maximum number of head twitches (mean ± SEM) (male C57BL/6 J mice [3]): 70.2 ± 10.6; HTR after pretreatment with 5-HT2A antagonist M100907 (in words) (mice; mice pretreated with M100907): blocked; induction of HTR (in words) (mice; mice): induce the head-twitch response; effects in DOM-trained animals (in words) (rats [6]): hallucinogen-like effects; effects in DOM-trained animals (in words) (monkeys): hallucinogen-like effects
COc1cc(SCCF)c(OC)cc1CCN.Cl [Compound 2C-T-21, 2,5-dimethoxy-4-(2-fluoroethylthio)phenethylamine hydrochloride]		8.8 ± 2.1	19.8 ± 2.7	61.8 ± 5.0	72.6 ± 9.4	5.58 µmol/kg	1.65 mg/kg		Ki (human 5-HT2A receptor [1]): 27.7 ± 6.2 nM; EC50 (human 5-HT2B receptor): 102 ± 24 nM; Emax (human 5-HT2B receptor): 32 ± 1.8%; Ki (h5-HT2C receptors): 72.7 ± 10.6 nM; Human potency range (humans; dose range active as psychedelic in humans, ref Shulgin and Shulgin (1991)): 8–12 mg ^[5]; Human active dose range (humans; [10]): 8 to 20 mg; EC50 (human 5-HT2A receptor [2]): 9.7 ± 0.1 nM; Emax (human 5-HT2A receptor [2]): 69 ± 4.8%
COc1cc(SCc2ccccc2)c(OC)cc1CCN.Cl [Compound 2C-T-27, 4-benzylthio-2,5-dimethoxyphenethylamine hydrochloride]				9.0 ± 0.8		7.3 µmol/kg	2.48 mg/kg	1.6 nM	5-HT2A agonist efficacy (in words) (human 5-HT2A receptor [7]): low efficacy partial agonists; HTR Counts (Mean ± SEM) (male C57BL/6 J mice [3]; 1.5 mg/kg IP): 6.0 ± 1.6; HTR Counts (Mean ± SEM) (male C57BL/6 J mice [3]; 6 mg/kg IP): 12.8 ± 2.0; HTR Counts (Mean ± SEM) (male C57BL/6 J mice [3]; 12 mg/kg IP): 10.8 ± 3.6; HTR Counts (Mean ± SEM) (male C57BL/6 J mice [3]; 24 mg/kg IP): 5.4 ± 2.0; effect on HTR counts (in words) (male C57BL/6 J mice [3]): relatively weak
COc1cccc(CSc2cc(OC)c(CCN)cc2OC)c1.Cl [Compound 2C-T-33, 2,5-dimethoxy-4-(3-methoxybenzylthio)phenethylamine hydrochloride]		8.6 ± 2.2	5.0 ± 2.8	9.6 ± 1.7	7.8 ± 0.8			1.7 nM	5-HT2A agonist efficacy (in words) (human 5-HT2A receptor [7]): low efficacy partial agonists; effect on HTR counts (in words) (male C57BL/6 J mice [3]): did not produce a significant increase in HTR counts
COc1cc(OC)c(OC)cc1CC(C)N (stereo not shown) [TMA-2, 2,4,5-trimethoxyamphetamine]									ED50 µmol/kg (95% CI) (male C57BL/6 J mice [8]): 12.4 (8.6–17.8) ^[1] µmol/kg; ED50 mg/kg (95% CI) (male C57BL/6 J mice [8]): 2.79 (1.94–4.01) ^[1] mg/kg
